Values joined by “and” are separate entries in the source; they are usually repeats but may differ in a detail not shown here. Identical values can stand only once.
What was measured:
Kir4.1 cKO astrocytes = assay: Patch clamp of Kir4.1 cKO primary astrocytes; type: cell-based, mouse; conditions: tamoxifen-treated Kir4.1 cKO astrocytes, 3 µM
Procedure: Astrocytes were isolated and cultured as previously described.^[ [16] ^] Briefly, the cortices from P1‐P4 mouse pups were dissected and incubated for 25 min in Hank's Balanced Salt Solution (22.5 ml) with 2.5% trypsin (2.5 ml) at 37 °C. Cells were dissociated in cultured medium (DMEM/F12 supplemented with 10% fetal bovine serum and 1% penicillin and streptomycin) and filtered with a 70‐µm cell strainer. Cell suspensions were cultured in PDL‐pretreated 75‐cm^2 flasks for the initial seven days, with half of the medium replaced every 2 days. Subsequently, the cultures were shaken at 220 rpm for 6 h at 37 °C to remove microglia and oligodendrocytes from the astrocyte layers. […]
Whole‐cell patch‐clamp recordings were obtained either in transiently transfected CHO‐K1 cells or in primary cultured astrocytes at room temperature using standard patch‐clamp techniques with an Axopatch‐700B amplifier (Axon Instruments). […] Macroscopic currents generated by expressed potassium channels were recorded under the voltage‐clamp conditions with an internal pipette solution composed of (in mM): 140 KCl, 5 NaCl, 1 CaCl2, 1 MgCl2, 10 HEPES, and 10 EGTA, pH 7.2 adjusted with KOH. […] Astrocytic resting membrane potentials were recorded under current‐clamp conditions (I = 0 pA) using standard internal and external solutions, determined immediately after achieving whole‐cell mode.

mice [1] = assay: Y-maze; type: in vivo; conditions: chronic 10 mg kg−1 per day
Procedure: This test was designed to evaluate spatial working memory. Briefly, mice were individually placed in a symmetrical Y‐maze and allowed to explore for 8 min. Entries were counted only when both hind paws crossed the arm threshold. Correct spatial alternation was defined as an entry into all three arms in an uninterrupted sequence (e.g., ABC, BCA or CAB each representing one alternation). The alternation percentage was derived as: [correct alternations/(total entries–2)] × 100%. After each session, the walls and floor of the maze were wiped with 75% ethanol and allowed to dry before the next animal was tested.

C57BL/6J mice after CSDS = assay: Chronic social defeat stress (CSDS) model, sucrose preference test; type: in vivo; conditions: single i.p. injection 10 mg kg−1
Procedure: The 10‐day CSDS paradigm was conducted as previously described.^[ [24] ^] CD‐1 aggressive mice were singly housed in defeat cages on one side of a perforated plexiglass partition 24 h before the defeat session. Experimental C57BL/6J mice were placed daily on the resident cage side of a novel CD‐1 aggressor that rapidly initiated a physical attack on the intruder. After 10‐min of social defeat, the intruder mice were housed on the opposite side of the partition within a shared home cage, experiencing further sensory contact for the subsequent 24 h. In contrast, control mice were maintained in their home cages and allowed to explore the empty defeat cages for 10 min each day.
Mice were individually housed with two identical bottles containing either 1% sucrose solution or tap water for 24 h. The bottles were then replaced to eliminate potential positional bias, followed by an additional 24‐h period with the same solutions. Subsequently, the mice were provided with tap water for 24 h. During the experimental phase, new bottles filled with either 1% sucrose solution or tap water were presented for 24 h, and the bottles were changed every 12 h. The bottles were weighed both before and after the 24‐h test to assess consumption of each solution.

mice [2] = assay: Hippocampal inflammatory cytokines (IL-6, TNF-α) after 14-day administration; type: in vivo; set-up: IL-6 / TNF-α: unit not given here; conditions: for IL-6 / TNF-α: hippocampus, 14-day administration, individual animals
[3] = test system: primary cortical astrocytes (native Kir4.1 channels); assay: Patch clamp of primary cultured WT astrocytes (native Kir4.1); type: cell-based, mouse
Procedure: Astrocytes were isolated and cultured as previously described.^[ [16] ^] Briefly, the cortices from P1‐P4 mouse pups were dissected and incubated for 25 min in Hank's Balanced Salt Solution (22.5 ml) with 2.5% trypsin (2.5 ml) at 37 °C. Cells were dissociated in cultured medium (DMEM/F12 supplemented with 10% fetal bovine serum and 1% penicillin and streptomycin) and filtered with a 70‐µm cell strainer. Cell suspensions were cultured in PDL‐pretreated 75‐cm^2 flasks for the initial seven days, with half of the medium replaced every 2 days. Subsequently, the cultures were shaken at 220 rpm for 6 h at 37 °C to remove microglia and oligodendrocytes from the astrocyte layers. The astrocytes were harvested, reseeded in two new flasks, and cultured in an incubator for 14 days. For Kir4.1 deletion in cell cultures, 4‐OH tamoxifen (final concentration: 1 µM, Felixbio) was added into Kir4.1^flox/flox: Aldh1l1‐Cre/ERT2 cortical cultures at DIV 2 and DIV 4, respectively, and completely removed at DIV7 when astrocytes were reseeded in fresh culture medium.
Whole‐cell patch‐clamp recordings were obtained either in transiently transfected CHO‐K1 cells or in primary cultured astrocytes at room temperature using standard patch‐clamp techniques with an Axopatch‐700B amplifier (Axon Instruments). The signals were filtered at 2 kHz and sampled at 20 kHz using the Digidata 1440A interface (Axon Instruments). The resistance of borosilicate glass pipettes was typically 2–4 MΩ when filled with the internal solution. Drug application was facilitated using a BPS perfusion system (ALA Scientific Instruments). Macroscopic currents generated by expressed potassium channels were recorded under the voltage‐clamp conditions with an internal pipette solution composed of (in mM): 140 KCl, 5 NaCl, 1 CaCl2, 1 MgCl2, 10 HEPES, and 10 EGTA, pH 7.2 adjusted with KOH. The external solution contained (in mM): 140 NaCl, 5 KCl, 2 CaCl2, 1 MgCl2, 10 glucose, and 10 HEPES, pH 7.4 adjusted with NaOH. Currents were elicited with a hyperpolarized voltage at −120 mV from the holding potential of −80 mV, followed by a ramp voltage depolarizing to +50 mV. Astrocytic resting membrane potentials were recorded under current‐clamp conditions (I = 0 pA) using standard internal and external solutions, determined immediately after achieving whole‐cell mode.

[4] = biological target: T1, DAT (dopamine transporter) (Homo sapiens, UniProt Q01959); assay: DAT functional assay (fluorescent neurotransmitter transporter uptake); type: cell-based; set-up: DAT inhibition, replicates: unit not given here
T1 construct: expressed in transfected cells
Procedure: The 5‐HTT/DAT functional assays were commissioned by Elsevier Science and Technology Co., Ltd. (Beijing). A fluorescence‐based neurotransmitter assay was conducted using a Neurotransmitter Transporter Uptake Assay Kit (Molecular Devices, R8174), according to the manufacturer's protocol. Flp‐in T‐rex 293 cells transiently expressing the human norepinephrine transporter and HEK293 cells stably expressing the human dopamine or serotonin transporters were seeded in PDL‐coated 384‐well plates and incubated overnight. Subsequently, the medium was removed, and the cells were treated with 16 µL of compounds diluted in assay buffer for 0.5 h at 37 °C. Centanafadine and 0.1% DMSO served as positive and negative controls, respectively. Then, 16 µL of dye mix prepared in 1× Hanks’ Balanced Salt Solution was added to each well and incubated at 37 °C for 1 h. Finally, the data point was acquired via a fluorescence plate reader with excitation at 450 nm and emission at 528 nm.

C57BL/6J mice = assay: Novelty-suppressed feeding test (NSFT); type: in vivo
Procedure: The mice were individually housed in new cages and deprived of food for 24 h. The testing equipment was a brightly lit plastic box measuring 40 × 40 × 30 cm^3 with a light intensity of 1100–1200 lux. Each mouse was positioned in a corner of the device with one food pellet located at the center. The latency to start chewing food was recorded within 5 min. Immediately thereafter, the mice were placed back in their home cage with pre‐measured food, and the amount consumed in the next 5 min was used as a baseline to account for appetite changes that might affect the outcome.

T1 sequence (Q01959 whole entry): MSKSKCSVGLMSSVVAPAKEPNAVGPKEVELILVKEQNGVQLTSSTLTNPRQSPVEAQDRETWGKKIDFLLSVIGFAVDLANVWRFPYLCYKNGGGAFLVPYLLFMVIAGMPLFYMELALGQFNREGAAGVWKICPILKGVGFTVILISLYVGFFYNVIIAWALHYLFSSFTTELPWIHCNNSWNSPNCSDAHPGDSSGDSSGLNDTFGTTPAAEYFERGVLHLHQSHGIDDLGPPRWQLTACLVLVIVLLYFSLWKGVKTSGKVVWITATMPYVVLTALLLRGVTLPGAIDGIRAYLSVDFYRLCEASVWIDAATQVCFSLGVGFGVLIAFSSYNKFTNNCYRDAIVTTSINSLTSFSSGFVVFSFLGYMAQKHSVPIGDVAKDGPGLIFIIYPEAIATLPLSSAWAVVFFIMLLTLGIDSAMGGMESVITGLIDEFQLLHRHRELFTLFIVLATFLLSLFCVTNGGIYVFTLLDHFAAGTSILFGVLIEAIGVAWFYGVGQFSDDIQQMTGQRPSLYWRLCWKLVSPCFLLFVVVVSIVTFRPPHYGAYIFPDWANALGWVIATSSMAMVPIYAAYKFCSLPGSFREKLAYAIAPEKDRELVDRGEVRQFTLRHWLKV

Question: Which results are given for `c1ccc2c(c1)oc1ccc(Nc3ccnc(NCCCN4CCOCC4)n3)cc12` [JX3212, N^4-(dibenzo[b,d]furan-2-yl)-N^2-(3-morpholinopropyl)pyrimidine-2,4-diamine]?
Answer: JX3212-induced effects in Kir4.1 cKO astrocytes (in words) (Kir4.1 cKO astrocytes): abolished; Y-maze alternation percentage vs vehicle (in words) (mice [1]): showed no effects; CSDS: sucrose preference in SPT (in words) (C57BL/6J mice after CSDS): nonsignificant increase in the sucrose preference ratio; hippocampal interleukin-6 level (in words) (mice [2]; 3/10 mg kg−1 for 14 days): did not elevate; hippocampal tumor necrosis factor-alpha level (in words) (mice [2]; 3/10 mg kg−1 for 14 days): did not elevate; IL-6 (mice [2]; 3 mg/kg): 45.0571 and 32.8331 and 24.8073 and 32.2935 and 22.1265 and 25.6335 and 36.1041 and 30.8941 and 28.8202 and 44.6187 and 40.1844 and 35.7837 and 22.7841 and 20.9462 and 42.3088; TNF-α (mice [2]; 3 mg/kg): 465.065 and 545.129 and 550.438 and 437.245 and 389.037 and 473.135 and 223.18 and 189.621 and 460.606 and 247.598 and 569.127 and 488.638 and 325.113 and 294.957; IL-6 (mice [2]; 10 mg/kg): 35.0924 and 32.8836 and 20.727 and 32.5464 and 25.9876 and 35.1767 and 33.4906 and 33.3389 and 29.4778 and 46.0519 and 38.6332 and 35.1936 and 20.9968 and 23.4416 and 42.3425; TNF-α (mice [2]; 10 mg/kg): 489.276 and 552.137 and 604.805 and 420.68 and 480.356 and 484.816 and 216.59 and 243.988 and 478.02 and 253.544 and 531.962 and 451.261 and 319.804 and 494.16; astrocytic resting membrane potential (in words) ([3]; JX3212 3 µM, BaCl2 100 µM): marked depolarization; astrocytic macroscopic slope conductance (in words) ([3]; WT astrocytes, 3 µM): partially impaired the macroscopic slope conductance; astrocytic potassium currents (in words) ([3]; WT astrocytes, 3 µM): notably decreased potassium currents; IC50 [4]: 5.2 µM; DAT inhibition, replicates ([4]; concentration 3): -3.23 and -17.79; DAT inhibition, replicates ([4]; concentration 10): -5 and -8.74; DAT inhibition, replicates ([4]; concentration 30): 1.89 and -0.08; DAT inhibition, replicates ([4]; concentration 100): -1.46 and -1.85; DAT inhibition, replicates ([4]; concentration 300): -3.23 and -0.87; DAT inhibition, replicates ([4]; concentration 1000): 32; DAT inhibition, replicates ([4]; concentration 3000): 70.17 and 28.06; DAT inhibition, replicates ([4]; concentration 10000): 80.01 and 56.79; DAT inhibition, replicates ([4]; concentration 30000): 99.88 and 90.83; DAT inhibition, replicates ([4]; concentration 100000 (unit not given)): 110.9 and 109.92; effective threshold dose in NSFT (C57BL/6J mice; acute administration, doses 1, 3, 10 mg kg−1): 10 mg/kg; food intake in home cage after NSFT (in words) (C57BL/6J mice; repeated administration, vs vehicle): remained comparable to that in the vehicle group; Food intake in home cage, single mice (C57BL/6J mice; repeated doses, 3 mg/kg (Fig 3F), 3 mg/kg): 0.14 and 0.11 and 0.12 and 0.1 and 0.09; NSFT antidepressant-like response after repeated administration (in words) (C57BL/6J mice; seven days, imipramine 15 mg kg−1, JX3212 3/10 mg kg−1): elicited significant antidepressant‐like responses; NSFT latency to feed (in words) (C57BL/6J mice; single dose 10 mg kg−1 i.p., 1 h after administration): significantly reduced the latency to feed

— article PMC12903969, “Discovery of a Novel and Potent Kir4.1 Inhibitor as a Safe and Rapid‐Onset Antidepressant Agent in Mice” (Advanced Science, 2025)
